Activity calls are given as the source filed them.
Columns and labels:
[1] = system: HEK293; test: cells; details: Homo sapiens
[2] = A Cell Based Secondary Assay To Explore Cytotoxicity of Compounds that Sensitize Mycobacterium Tuberculosis to Beta-Lactam Antibiotics.; format: functional
[3] = system: HEK293; test: cells; details: Homo sapiens; remark: listed apart in the source
[4] = NIH3T3 cell viability loss – ATP luminescence, mouse fibroblasts, counter-screen, dose response (AID 2010); format: functional, cell-based;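 also: cells exposed to compound for about 90 hours before reading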
[5] = Trypanosoma cruzi growth suppression in host cells – NIH3T3 host cells, beta-gal luminescence, confirmation (AID 2044); format: functional, cell-based;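 also: intracellular parasites grown in NIH/3T3 mouse fibroblasts as host cells; luminescent beta-galactosidase reporter signal from transgenic T. cruzi replicating inside host cells; inhibitors lower the luminescence signal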
[6] = target: T1, Heat shock factor protein 1 (Mus musculus, UniProt P38532); test: enhancement of HSF1-driven luciferase signal – cell-based, NIH3T3, luminescence, dose retest, confirmation (AID 435004); format: functional;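 also: stress induced by proteasome inhibitor MG132 added 30 min after compound; luciferase reporter driven by HSF1 response element in NIH3T3 cells; actives raise luminescence as potentiators of the MG132 stress response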
T1 sequence (P38532 whole entry): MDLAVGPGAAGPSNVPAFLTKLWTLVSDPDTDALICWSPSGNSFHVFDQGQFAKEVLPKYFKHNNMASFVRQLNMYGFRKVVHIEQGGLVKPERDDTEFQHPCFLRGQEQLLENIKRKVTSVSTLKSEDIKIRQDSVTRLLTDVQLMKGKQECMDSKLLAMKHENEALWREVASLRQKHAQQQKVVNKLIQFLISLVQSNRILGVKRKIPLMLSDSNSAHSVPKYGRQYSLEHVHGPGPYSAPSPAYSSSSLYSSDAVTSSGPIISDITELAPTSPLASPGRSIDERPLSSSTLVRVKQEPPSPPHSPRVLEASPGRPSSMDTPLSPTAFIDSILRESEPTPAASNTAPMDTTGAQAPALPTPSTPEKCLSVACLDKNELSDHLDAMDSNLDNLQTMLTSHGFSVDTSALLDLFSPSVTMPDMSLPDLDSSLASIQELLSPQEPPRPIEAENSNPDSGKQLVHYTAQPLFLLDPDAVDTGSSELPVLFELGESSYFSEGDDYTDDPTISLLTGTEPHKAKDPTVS

[7] = reduced cellular PGC1a acetyl-lysine signal – cell-based, cherry-picked samples, dose response (AID 720514); format: functional;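 also: potency may reflect raised or lowered acetylation signal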
[8] = system: HeLa; test: ATP-based viability loss in HeLa cells – cell-based, CellTiter-Glo luminescence, cherry-pick samples, cytotoxicity control for MITF activator project, dose response (AID 540259); format: functional; details: Homo sapiens
[9] = target: Cytochrome P450 2D6 (Homo sapiens, UniProt P10635);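 also: CYP2D6 member of a cytochrome P450 panel assay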
Chain of Cytochrome P450 2D6 (P10635 whole entry): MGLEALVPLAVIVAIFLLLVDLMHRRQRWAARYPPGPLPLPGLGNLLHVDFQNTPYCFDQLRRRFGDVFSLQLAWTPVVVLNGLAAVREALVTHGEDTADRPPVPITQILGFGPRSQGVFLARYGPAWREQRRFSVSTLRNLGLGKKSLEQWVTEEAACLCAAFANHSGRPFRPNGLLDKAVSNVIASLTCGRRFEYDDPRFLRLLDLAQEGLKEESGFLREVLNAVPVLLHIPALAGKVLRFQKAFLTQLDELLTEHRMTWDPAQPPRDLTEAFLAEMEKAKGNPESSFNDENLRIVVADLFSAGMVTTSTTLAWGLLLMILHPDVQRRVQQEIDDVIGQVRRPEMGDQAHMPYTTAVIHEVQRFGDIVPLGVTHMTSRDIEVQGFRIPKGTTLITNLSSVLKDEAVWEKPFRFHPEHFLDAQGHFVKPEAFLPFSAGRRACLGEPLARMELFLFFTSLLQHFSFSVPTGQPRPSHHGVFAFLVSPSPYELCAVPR

[10] = Luminescence Cell-Based Dose Response HTS to Identify Activators of Luciferase Translation or Activity in H4 […] Cells. [Related pubchem assays: 1829 (Project Summary), 1814 (Primary HTS)]; format: functional
[11] = system: H4; test: Luminescence Cell-Based Dose Response HTS to Identify Activators of 5'UTR Stem-Loop Driven Prion Protein mRNA Translation in H4 Neuroglioblastoma Cells. [Related pubchem assays: 1829 (Project Summary), 1814 (Primary HTS)]; format: functional; details: Homo sapiens

SMILES: N#Cc1cc(Oc2cccc3cccnc23)c(-n2nnc3ccccc32)cc1C#N
- EC50 [1]: > 59.6 µM (inactive)
- CC50 [2]: > 40 µM (active)
- EC50 [3]: > 59.6 µM (inactive)
- EC50 [4]: 22.6 µM (active)
- EC50 [5]: 2.25 µM (active)
- EC50 [6]: > 260 µM (inactive)
- AC50 [7]: 2.77 µM (active)

SMILES: O=C(CNC(=O)c1cccs1)c1ccc(Br)cc1
- AC50 [8]: 59.4 µM (active)

SMILES: O=C1OC(=O)[C@@H]2[C@@H]1[C@@H]1CC[C@H]2O1
- AC50 [9]: inconclusive

SMILES: C=CCn1c(C)cc(C(=O)CN2NS(=O)(=O)c3ccccc3C2=O)c1C
- EC50 [1]: > 59.6 µM (inactive)
- EC50 [3]: > 2.21 µM (active)

SMILES: Cc1ccc(Sc2cnc3ccccc3n2)cc1
- AC50 [8]: 44.3 µM (active)
- EC50 [10]: 3.64 µM (active)
- EC50 [11]: 10.1 µM (active)

— ChEMBL document CHEMBL1201862, “PubChem BioAssay data set” (2004)
